Patent US20110117164A1, “Use of Additive Sites to Control Nitric Oxide Release from Nitric Oxide Donors Contained within Polymers” (priority 2004, published 2011)

Experiments:
[1] = Organic phase pH of polymer films monitored with chromoionophore II (UV-Vis); assay type: physicochemical; details: PVC films with 5 wt. % donor, PBS buffer; protonated 650 nm, deprotonated 514 nm
Source text: To determine, experimentally, if the pH within the film was changing with time, a lipophilic pH chromoionophore was incorporated into PVC films containing 5 wt. % of 2d, both in the presence and absence of KTpClPB. The intensity of the UV-Vis absorbances corresponding to the protonated (λmax=650 nm) and deprontonated (λmax=514 nm) peaks of the chromoionophore were monitored with time spectrophotometrically. […] This further supports the notion that as NO is being released from within the polymer phase, the unreacted diazeniumdiolate groups may require a buffering system to prevent the film from becoming too basic, which in turn may slow further diazeniumdiolate decomposition.
General Procedure for Deprotection to Form Diamine Copolymer (c). 35 mg of the copolymer (b) was dissolved in 2 mL of dichloromethane and then 200 μL of TFA (trifluoroacetic acid) was added dropwise. The solution was stirred at room temperature for about 3 hours. […] The data was recorded as a concentration of NO in PPB or PPM. The total amount of NO released (in moles) was determined by multiplying a constant (specific to each instrument, units of mol ppm^−1 s^−1) by the time interval that data was collected and the concentration. pH Experiments. […]

[2] = test system: adult sheep; assay: Coated VECTRA vascular access grafts implanted as arteriovenous grafts in sheep, 21 days; assay type: in vivo
Source text: Synthetic vascular access grafts (VECTRA™), a proprietary blend of segmented polyetherurethane and siloxane (20 cm in length and 5 mm in diameter), were coated with compound 2d dispersed within a PVC/DOS matrix with appropriate additives. A sheep model was used for in vivo testing. Arteriovenous grafts connecting the common carotid artery to the ipsilateral external jugular vein were surgically implanted in subcutaneous tunnel in adult sheep. Over a 3-week period, duplex ultrasound and clinical examination were performed to assess graft patency. Grafts were removed at 21 days and underwent gross and histological evaluation. […] In addition, histological studies, using appropriate stains to highlight different regions, confirm the thrombus adherent at the luminal surface and red blood cell infiltration into upper layers of the control grafts (FIG. 11A).

Structure (SMILES): CCCCNCCCCCCN(CCCC)/[N+]([O-])=N/O [Compound 2d, (Z)-1-{N-Butyl-N-[6-(N-butylammoniohexyl)amino]}-diazen-1-ium-1,2-diolate]
- change of chromoionophore peaks with exposure time, films containing KTpClPB [1]: the intensity of the protonated peak remains constant
- change of chromoionophore peaks with exposure time, films without KTpClPB [1]: an increase in the absorbance of the deprotonated peak and a decrease in the protonated peak
- graft patency ([2]; duplex ultrasound and clinical examination, n=2): patent at 21 days
- mean luminal thrombus-free surface area ([2]; grafts coated with donor in PVC/DOS matrix, removed at 21 days, n=2): 95%
- histological evaluation of grafts ([2]; grafts removed at 21 days): minimal thrombus formation and red blood cell infiltration
- gross evaluation of thrombus formation on grafts ([2]; grafts removed at 21 days, vs control grafts): greatly reduced degree of thrombus formation
